System: dopaminergic neuronal cell line
Assay: High Glutamate-Induced Oxidative Stress Assay (HGOS)
Format: cell-based
Settings: Mus musculus; 30 mM glutamate, 16 h, Cell Tracker Green; read-out: protection against HGOS cell injury and cell death with an EC50
Excerpt: Protection against redox stress can be evaluated in cell culture using high glutamate induced oxidative stress (HGOS) in mouse dopaminergic cell lines. The cytotoxic effect of glutamate is not due to excitotoxicity, as this cell line is devoid of inotropic glutamate receptors. Rather, the glutamate-induced toxicity of dopaminergic cells is associated with an inhibition of cystne transport which subsequently leads to depletion of intracellular glutathione (GSH) levels (Murphy T. H., et al. Neuron, Vol. 2 (1989), pp. 1547-1558), activation of neuronal 12-Lipoxygenase (Li, Y. et al. Neuron, Vol. 19 (1997), pp. 453-463), increased ROS production (Tan S. et al. J. Cell Biol., Vol. 141 (1998), pp. 1423-1432) and elevated intracellular Ca^2+ (Li, Y. et al. see supra). Some molecules were measured for their ability to protect cells against glutamate-induced stress and the assay is detailed in Examples.
This procedure was used to induce high glutamate-induced oxidative stress (HGOS) in a dopaminergic neuronal cell line. Using this assay the potency and efficacy of test articles against HGOS neuronal cell injury and cell death was established in a high throughput manner.
• Dopaminergic neuronal cell lines • DMEM-No Glucose (Life Technologies Cat # 11966-025) • L-glutamine (Life Technologies Cat # 25030-081) • L-glutamic acid, monosodium salt (Sigma Cat # G5889) • D-glucose (Sigma Cat # G-6151) • 10×HBSS buffer(pH 7.4) (950 mL Pyrogen-free water, 2.44 g/L MgCl2.6H20, 3.73 g/L KCl, 59.58 g/L Hepes, 58.44 g/L NaCI, 1.36 g/L KH2PO4, 1.91 g/L CaCl2.2H2O and pH to […] with HCl) • Cell Tracker Green fluorescent dye (Molecular Probes, Cat # 2925). Prepare a 5 μM solution in pre-warmed HBSS just prior to use. • Sterile 96-well plates pre-coated with poly-D-lysine (Corning Catalog # 3665) • 96-well deep well mother plate, DyNA Block 1000 (VWR Catalog # 40002-008) Neuronal Cells
The cells were seeded into 96-well plates at a density of 2000 per well and left to grow for 72 hours in a 33° C. incubator with 5% CO2 in air atmosphere. […]

Row | SMILES | EC50
1 | Cc1c(C)c2c(c(C)c1O)CCC1(CC1)O2 [5,7,8-trimethyl-3,4-dihydrospiro[chromene-2,1′-cyclopropan]-6-ol] | < 1000 nM
2 | Cc1c(C)c2c(c(Cl)c1O)CCC1(CCC1)O2 [5-chloro-7,8-dimethyl-3,4-dihydrospiro[chromene-2,1′-cyclobutan]-6-ol] | < 1000 nM
3 | Cc1c(C)c2c(c(C)c1O)C1(CCC1)CCS2 [5′,7′,8′-trimethyl-2′,3′-dihydrospiro[cyclobutane, 1,4′-thiochromen]-6′-ol] | < 1000 nM

Source: US7576094B2, “Spiro derivatives as lipoxygenase inhibitors” (Eli Lilly and Company, priority 2004, dated 2009)
